Measured values from patent publication US11141495B2, “MRI imaging of amyloid plaque using liposomes” (Texas Children's Hospital, priority 2014, dated 2021).
Where two headings read alike, the source gives them in different places.

How the values were obtained:
Aβ(1-40) fibrils [1] = biological target: T1, Aβ(1-40) fibrils (Homo sapiens, UniProt P05067); experiment: Competitive binding assay to fibrils versus Chrysamine G; conditions: for % bound to fibrils in competition with Chrysamine-G: Chrysamine-G concentration of 1 μM, 20 μM fibrils, 1.0 μM test compound
T1 construct: Aβ(1-40) peptide (rPeptide, Bogart, Ga.); purchased rPeptide, Bogart, Ga
T1 sequence (P05067 672-711): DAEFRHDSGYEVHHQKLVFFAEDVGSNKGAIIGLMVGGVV
Experimental: (§1) Aβ fibrils were synthesized according to the method of Klunk et al. Ann Neurol, 2004; 55: 306-19, the entire teachings of which are incorporated herein by reference. Briefly, Aβ(1-40) peptide (rPeptide, Bogart, Ga.) was dissolved in phospho-buffered saline, pH 7.4 to a final concentration of 433 μg/mL (100 μM). The solution was stirred using a magnetic stir bar at 700 rpm for 4 h at room temperature to drive the formation of fibrils. The stock solution was aliquoted and stored at −80° C. for future use. The stock solutions were stirred thoroughly before removing aliquots for binding assays to maintain a homogenous suspension of fibrils. […]
(§2) Binding assay: The binding affinity of the compounds or compound-labeled liposomes with the amyloid fibrils was measured by following methods. Ligand-labeled liposomes, ligand stock solutions, and Chrysamine G fix competition assays were diluted with […] to 500 nM. Fibril stock solution was mixed with a stock solution of the compound or the compound-labeled liposomes in a 200 μL reaction mix to give a final concentration of fibrils (20 μM) with test compounds varying from 0.0625-20 μM. The binding mixture was incubated at room temperature for 1 h. Subsequently, the incubated binding mixture was centrifuged for 20 min at 16,400 rpm to separate the fibrils. The fibril precipitate was washed twice with Tris-HCl. Fluorescence was then measured in a Filter Max F-5 multi-mode plate reader (Molecular Devices, Sunnyvale, Calif.), using excitation and emission wavelengths of 405 nm and 535 nm, respectively. Competitive binding assays used 20 μM of fibrils, 1.0 μM test compounds and varying amounts of the non-fluorescent competitor, Chrysamine G and incubated for 1 h.

Aβ(1-40) fibrils [2] = biological target: T1, Aβ(1-40) fibrils; experiment: Binding assay of compounds or compound-labeled liposomes with amyloid fibrils (fluorescence of washed fibrils); conditions: for binding to fibrils, relative fluorescence unit: at a concentration of 1 μM
Experimental: as §1, §2
FIG. 7B is a graph showing fibril binding data and a calculated fit for estimation of the binding constant far Compound ii to fibrils at Kd=5.0 μM. FIG. 7C is a graph showing fibril binding data and a calculated fit for estimation of the binding constant for Compound iii to fibrils at Kd=5.0 μM. […] Binding to fibrils was quantified by measuring the fluorescence of the respective binding agent to washed fibrils. The data was fitted to a monolayer binding equation; Kd=1/Kb.

amyloid plaques = experiment: Fluorescent staining of human AD frontal cortex tissue sections; conditions: frontal cortex of an AD autopsy case; 1 mM, 2 hours
Experimental: (§3) Compound iii solutions in PBS were incubated with frontal cortex tissue obtained from autopsy of an AD patient (the University of Kentucky Institutional Review Board approved the use of human tissue for the study; informed consent was obtained prior to autopsy) and a 12.3 year old canine. Both the human and canine tissues had Alzheimer's amyloid pathology confirmed from previous studies. 50 μm thick free-floating sections were mounted on slides and allowed to dry overnight. Slides were then washed in PBS (3×5 min) and incubated in Compound iii solution (1 mM) for 2 hours and then again washed 3×5 min in PBS, and coverslipped in Vectashield mounting medium with […] (Vector Laboratories, Burlingame, Calif.). Sections were imaged on an Olympus BX-51 microscope with a broadpass filter (Olympus Corporation of the Americas, Center Valley, Pa.).

[3] = tested on: cerebral amyloid angiopathy; experiment: Fluorescent staining of aged dog frontal cortex tissue sections; conditions: 12.3 year old canine, 1 mM, 2 hours
Experimental: as §3

| SMILES | bound species displaced by Chrysamine G (Aβ(1-40) fibrils [1]) | % bound to fibrils in competition with Chrysamine-G (Aβ(1-40) fibrils [1]) | binding to fibrils, relative fluorescence unit (Aβ(1-40) fibrils [2]; 20 μM fibrils) | staining of amyloid plaques in human brain tissue (amyloid plaques) | labeling of cerebral amyloid angiopathy in aged dog brain tissue [3] | Kd (Aβ(1-40) fibrils [2]) | Kd (Aβ(1-40) fibrils [2]; 20 μM fibrils, read-out: Kd, binding constant to fibrils (calculated fit, monolayer binding equation)) |
| --- | --- | --- | --- | --- | --- | --- | --- |
| COc1cc(/C=C/c2ccc(O)cc2)ccc1/C=C/c1ccc(O)cc1 [MeXO4, reference compound] | > 80% | about 20% | less than 100 k RFU | – | – | – | – |
| OCCN(CCO)c1ccc(/C=C/c2ccncn2)cc1 [Compound iii, (E)-2,2′-{[4-(2-(pyrimidin-4-yl)vinyl)phenyl]azanediyl}diethanol] | – | about 55% | 400 k RFU | specifically stains amyloid plaques | labels cerebral amyloid angiopathy | 5 µM | – |
| CN(CCO)c1ccc(/C=C/c2ccncn2)cc1 [Compound ii, (E)-2-{methyl[4-(2-(pyrimidin-4-yl)vinyl)phenyl]amino}ethanol] | – | about 45% | 35 m RFU | – | – | – | 5 µM |
